Data on 2 molecules can be found in patent US4454155A, “Pharmaceutical compositions containing a mono-substituted derivative of 4-phenyl-4-oxobuten-2-oic acid, and methods of using them in treating gastric and gastroduodenal ailments” (Roussel UCLAF, priority 1981, dated 1984).

The structures appear in SMILES notation.

One series is described as follows: Acute toxicity. Conditions: mouse, in vivo, po; per os, mice. On the procedure:
(3) Determination of the acute toxicity
The LD50 was evaluated after administration of the product per os in mice.

Series [1] has as its system total acidity of the gastric juice. Kind of series: Gastric anti-secretory activity (Shay, pylorus-ligated rats). Particulars: 10 mg/kg, intraduodenally, male rats, 3 hours. It is filed as in vivo, rat. As to the method: (1) Determination of the gastric anti-secretory activity
The technique used is described by H. Shay et al in Gastroenterology 5, 43 (1945).
Male rats were used, each having a weight of about 200 g (ten animals per lot), which had been without food for 48 hours but were allowed 8% glucose solution ad libitum. After the rats were slightly anesthetized with ether, the pylorus of each was ligated. At the end of the operation, different doses of the product to be tested, or in the case of the control animals a 0.5% carboxymethyl cellulose solution, were administered intraduodenally, whereupon the abdominal incision was sutured.
Three hours later, the animals were sacrificed and their stomachs removed after ligating the esophagus. The gastric juice was removed and centrifuged. The volume of gastric juice obtained was then measured and the total acidity of the gastric juice obtained was established by titrating a 100 μL sample of gastric juice to a pH of 7 with 1/10 N Sodium hydroxide aqueous solution. The total acidity was determined.
The percentage of variation of total acidity between the results from test animals and results from control animals were calculated.

The subject of series [2] is ulcers in the stomachs of rats. The series can be described thus: Anti-ulcer activity, stress ulcer (stress and cold). Format: in vivo, rat. Particulars: 10 mg/kg, by esophageal tube, female rats, stress at 8° C. for two hours. On the procedure:
(2) Determination of the anti-ulcer activity
The technique consists in inducing ulcers in the stomachs of rats by stress (stress and cold). The technique used is described by E. C. Senay and R. J. Levine, Proc. Soc. Ex. Biol. 124, 1221 (1967).
Female rats of 150 g (5 animals per lot) were used which had fasted for 48 hours with water ad libitum and glucose solution for 8 hours. The animals were given the test product, or a 0.5% solution of carboxymethyl cellulose in the case of the control animals, by esophageal tube. Two hours later, the animals were wrapped in a jacket of netting. Their paws were bound and the entire unit was placed in a refrigerator at 8° C. for two hours. The rats were freed and killed with ether. Their stomachs were removed, opened along the greater curvature and examined with a binocular magnifier. The seriousness of the lesions was rated from 0 to 3 for each stomach.
The average intensity of the ulcerations was calculated for each lot of rats. The difference in the degree of ulceration between test animals and control animals was determined and calculated as a percentage.

As usually defined, the LD50 is the dose expected to kill half of the subjects tested. A lower LD50 goes with greater toxicity. As for `O=C(O)C=CC(=O)c1ccccc1O` [Example 1, 4-(2-hydroxyphenyl)-4-oxobuten-2-oic acid], the LD50 in “Acute toxicity” was 350 mg/kg. Further, in series [1], the “Anti-secretory activity (% variation as compared with the controls), Acid Concentration” value is -65%. For the same molecule, the “Anti-ulcer activity (% variation as compared with the controls), Ulceration” value in series [2] is -35%.

`COc1ccc(C(=O)C=CC(=O)O)cc1` [Example 2, 4-(4-methyoxyphenyl)-4-oxobuten-2-oic acid] gave an LD50 in “Acute toxicity” of 500 mg/kg. Besides, in series [1], the “Anti-secretory activity (% variation as compared with the controls), Acid Concentration” value is -66%. Also, the “Anti-ulcer activity (% variation as compared with the controls), Ulceration” value in series [2] is -73%.
